Test results from paper PMC10223284, “Category-Based Toxicokinetic Evaluations of Data-Poor Per- and Polyfluoroalkyl Substances (PFAS) using Gas Chromatography Coupled with Mass Spectrometry” (Toxics, 2023).
Where “and” joins values, the source holds several entries; their conditions need not be identical. Equal entries are not always repeated. Where two headings read alike, the source gives them in different places.

Assays:
[1] = test system: pooled human cryopreserved primary hepatocyte suspensions; assay: Hepatic metabolic stability (hepatocyte clearance) assay, substrate depletion; type: in vitro ADME; conditions: for Bkgd-Sub Clearance (µL/min/106 hepatocytes): background-subtracted; for Concentration (nM), Time 0 min / Concentration (nM), Time 15 min / Concentration (nM), Time 30 min / Concentration (nM), Time 60 min / Concentration (nM), Time 120 min / Concentration (nM), Time 240 min: hepatocyte incubation, Rep 1-3, start conc 1000 nM; for Linear Regression Results, Best-Fit Values, Slope / Linear Regression Results, Best-Fit Values, Clearance / Linear Regression Results, Best-Fit Values, Half Life: hepatocyte time course; for Linear Regression Results, Best-Fit Values, Clearance / Linear Regression Results, Best-Fit Values, Half Life: NS = slope not significant
From the text: William’s Medium E (Gibco A1217601), dexamethasone, and cell maintenance cocktail B (Gibco CM4000) were obtained from Thermo Fisher Scientific (Waltham, MA, USA). Hepatosure OptiThaw media (P/N K8000; Lot No. 18–1–0322) was obtained from Sekisui Xenotech (Kansas City, KS, USA). Trypan blue solution (P/N 1450021) was obtained from Bio-Rad (Hercules, CA, USA). Pooled human cryopreserved primary hepatocyte suspensions were obtained from BioIVT (Westbury, NY, USA) and produced using nontransplantable tissue. The human 50-donor pool (mixed gender; Cat X0080005; Lot MYC), selected from BioIVT’s commercially available, prepooled lots, was selected following review of vendor-generated metabolic characterization information. Pooled, mixed-sex human plasma from de-identified donors was obtained from a commercial vendor that operates a U.S. Food and Drug Administration-licensed and inspected donor center (BioIVT bioivt.com (accessed 12 May 2023). Donors comprised five males and five females and ranged from 20 to 50 years of age. Plasma collected using anticoagulant K2EDTA was sterile-filtered ([…]) and stored at <−70 °C until use.
The hepatic metabolic stability assay measures the loss of a parent compound over time in a substrate-depletion approach. Briefly, hepatocyte suspensions, after a viability assessment, were diluted in complete William’s medium E (containing dexamethasone and cell maintenance cocktail B) prior to addition to 96-well polypropylene plates containing an equal volume of media spiked with the test compound (1 μM assay concentration; assay cell density = 50,000 cells/100 μL) and maintained at 37 °C with shaking. At each time point, relevant plates were crashed with an equal volume of ice-cold acetonitrile, centrifuged, and supernatant transferred to a new plate prior to storage at <−70 °C until quantitative analysis. Controls, run in parallel, included cell-free (i.e., media only) and metabolically inactivated hepatocytes to evaluate abiotic chemical stability in the aqueous media matrix with and without cellular protein. In preliminary runs, these controls were run at T0 and T240 only. If significant instability was noted, the hepatocyte clearance assay was rerun, including cell-free samples at each time point and metabolically inactivated hepatocytes at selected time points.
To process samples for quantitative analysis, samples were thawed and mixed. An aliquot of sample was removed and diluted in acetonitrile (1 part sample plus 9 parts acetonitrile) containing the relevant ISs selected for the PFAS being analyzed (See Table S2). The target at instrument concentration of each IS was 10 pg/μL.
The curves were generated using concentration/response ratios from the target analyte and IS, with either linear or quadratic regression models. The model and weighting, if necessary, were chosen to most accurately reflect the response of each compound and was evaluated by recalculating the individual calibration points using the curve. An acceptable model reflected an accuracy of ±30% of the theoretical value.
Hepatic metabolic clearance data were plotted in semi-log format (ln concentration vs. time) with three replicates at each time point, as previously described. […] The equations described below are used to calculate the chemical half-life (T½) and intrinsic in vitro clearance (Clin vitro) with units of μL/(min × million hepatocytes). In Equation (3), 2000 is a scalar used to adjust the assay cell number up to be consistent with units of 1 million cells in the Clint equation.
Negative controls, including media only and metabolically inactivated hepatocyte controls, were included to monitor abiotic loss (i.e., background clearance) during the assay. Where significant compound loss occurred using the analysis described above, background clearance rates were calculated and used to background-adjust hepatic metabolic clearance rates. […]

[2] = Abiotic loss in negative controls of the hepatocyte clearance assay (cell-free media, metabolically inactivated hepatocytes); type: in vitro ADME; conditions: for Hep_Stab_Fail: flag for stability failure in hepatocyte clearance assay controls (1 or Fst = fail, 0 = pass); for HT BkgdCl, Half Life / HT BkgdCl, Slope: heat treated hepatocytes control; for HT BkgdCl, Half Life / HT BkgdCl, Slope / No Cells BkgdCl, Half Life / No Cells BkgdCl, Slope: 0 vs 240 min; for Negative Controls, Heat Treated (HT), concentration at 0 min / Negative Controls, Heat Treated (HT), concentration at 240 min: heat treated hepatocytes; for Negative Controls, Heat Treated (HT), concentration at 0 min / Negative Controls, Heat Treated (HT), concentration at 240 min / Negative Controls, No cells (NC), concentration at 0 min / Negative Controls, No cells (NC), concentration at 240 min: Rep 1-3; for No Cells BkgdCl, Half Life / No Cells BkgdCl, Slope: no cells control
Method in brief: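 Abiotic stability was checked with media-only and inactivated-hepatocyte controls, run at T0 and T240 or, on rerun, at more time points. Compound at 1 μM, 37 °C, acetonitrile quench. Loss rates served for background subtraction, and ≥50% loss by T120 meant exclusion.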

[3] = In vitro-in vivo extrapolation (IVIVE) to Css and administered equivalent dose (AED); design: species or system human; conditions: for Clhep: IVIVE, hepatocyte Clint scaled to whole-liver clearance; for AED: administered equivalent dose from LOEC and Css; for Fub: fub=fup/(B:P), Fub set to 1 if needed; for CLint: scaled with HPGL 110 mill cells/g, Vl 1596 g
Experimental: Using the experimentally generated PPB (fraction unbound in plasma, fup) and hepatic Clint data, IVIVE was performed as previously described to calculate human steady-state plasma concentrations (Css). Briefly, experimental measures of fup are adjusted using blood:plasma partitioning information to estimate the fraction unbound in blood (fub). Experimental hepatocyte Clint data are scaled up to represent whole-liver clearance (L/h). […] Once estimated, these Css values are considered in conjunction with published in vitro bioactivity concentrations (i.e., lowest-observed effective concentrations, or LOECs) to calculate AEDs (Table 2). See Table S10 for all relevant IVIVE inputs, scalars, calculations, and outputs.

human primary cells = conditions: cited from earlier work
human plasma [4] = assay: Chemical stability in plasma over the UC assay time course (T5hr/T1hr); conditions: for PPB_Stab_Fail: flag for stability failure in the plasma protein binding assay (1 = fail, 0 = pass); for Mean Stability: mean T5hr/T1hr ratio over all replicates and runs, plasma; for Stability (T5hr/ T1hr), replicates A, B, C: single replicate of one UC run
human plasma [5] = assay: Ultracentrifugation (UC) plasma protein binding assay, fraction unbound in plasma (fup); conditions: for Fraction Unbound (fu), Run-specific Avg: average of one UC run (run date in line above); for Mean fu: fraction unbound in human plasma, some values based on eLOQ; for Mean fu / fup: ultracentrifugation; for fup: 10 μM, 37 °C; for Fraction Unbound (fu), replicates A, B, C: single replicate of one UC run (aqueous fraction / Time 5 hr)
[6] = Assuming 1 mg/kg/day dose rate, BW 70 kg
[7] = human steady-state plasma concentration, assuming 1 mg/kg/day dosage
[8] = BioSeek lowest-observed effect concentration used for AED
[9] = minimum lowest-observed effect concentration, BioSeek platform

For 3-(Perfluoro-2-butyl) propane-1,2-diol, the Clint.1.Med ([1]; Bayesian analysis median, 1 μM assay concentration (Table S9)) was 4.6, the “Bkgd-Sub Clearance (µL/min/106 hepatocytes)” value [1] was 5.876 µL/min/106 hepatocytes and the “Unadj Clint” value ([1]; hepatocyte clearance, Conc 1000 nM, not background adjusted) was 8.61. For the same molecule, the “Concentration (nM), Time 0 min” value [1] was 880.591 nM and 1037.48 nM and 1054.86 nM, the “Concentration (nM), Time 15 min” value [1] was 858.26 nM and 1099.86 nM and 993.717 nM and the “Concentration (nM), Time 30 min” value [1] was 742.136 nM and 974.371 nM and 915.81 nM. For the same molecule, the “Concentration (nM), Time 60 min” value [1] was 904.196 nM and 908.986 nM and 744.943 nM, the “Concentration (nM), Time 120 min” value [1] was 623.052 nM and 608.094 nM and 642.654 nM and the “Concentration (nM), Time 240 min” value [1] was 400.866 nM and 351.17 nM and 326.466 nM. For the same molecule, the “Linear Regression Results, Best-Fit Values, Slope” value [1] was -0.004305, the “Linear Regression Results, Best-Fit Values, Clearance” value [1] was 8.61 and the “Linear Regression Results, Best-Fit Values, Half Life” value [1] was 160.976. The “In Vitro Clint” value ([1]; pooled human hepatocyte suspensions, 1 μM) was 5.88 μL/min/10^6 cells, the “Unadj in vitro Clint” value ([1]; unadjusted hepatocyte intrinsic clearance) was 8.61 and the Hep_Stab_Fail [2] was 0. The “HT BkgdCl, Half Life” value [2] was 285.42, the “HT BkgdCl, Slope” value [2] was -0.002428 and the “Negative Controls, Heat Treated (HT), concentration at 0 min” value [2] was 1083.95 nM and 2011.47 nM and 1037.82 nM. For the same molecule, the “Negative Controls, Heat Treated (HT), concentration at 240 min” value [2] was 725.383 nM and 763.18 nM and 711.759 nM, the “No Cells BkgdCl, Half Life” value [2] was 506.95 and the “No Cells BkgdCl, Slope” value [2] was -0.001367. For the same molecule, the “Negative Controls, No cells (NC), concentration at 0 min” value [2] was 1136.56 nM and 1061.97 nM, the “Negative Controls, No cells (NC), concentration at 240 min” value [2] was 792.448 nM and 800.439 nM and 781.338 nM and the Css [3, 6] was 0.09 mg/L and 0.30 uM. For the same molecule, the Clhep [3] was 28.460 L/h, the AED [3] was 6.5951 mg/kg/day and the Fub [3] was 0.672. The Css [3, 7] was 0.30 µM, the CLint [3] was 1032293 µL/min and the LOEC (human primary cells; [8]) was 2.00 µM. The LOEC (human primary cells; [9]) was 2 µM, the “Stability (T5hr/ T1hr), Run-specific Avg” value (human plasma [4]; average of one UC run (run date in line above)) was 0.962 and the PPB_Stab_Fail (human plasma [4]) was 0. For the same molecule, the “Mean Stability” value (human plasma [4]) was 0.965, the Fstable.Med (human plasma [4]; median fraction stable in plasma, UC assay Level4) was 0.232 and the “Stability (T5hr/ T1hr), replicates A, B, C” value (human plasma [4]) was 0.883 and 0.994 and 1.018. The “Fraction Unbound (fu), Run-specific Avg” value (human plasma [5]) was 0.37, the Mean fu (human plasma [5]) was 0.3696 and the fup (human plasma [5]; human plasma) was 0.3696. The “Mean Fu” value (human plasma [5]; mean fraction unbound over all replicates and runs, UC assay, human plasma) was 0.370, the Fup.Med (human plasma [5]; median fraction unbound in plasma, UC assay Level4) was 0.364 and the Fup.point (human plasma [5]; point estimate of fraction unbound in plasma, UC assay Level4) was 0.37. The “Fraction Unbound (fu), replicates A, B, C” value (human plasma [5]) was 0.349 and 0.339 and 0.421.

For `OCC(F)(F)C(F)(F)C(F)(F)CO` [Hexafluoroamylene glycol], the “Bkgd-Sub Clearance (µL/min/106 hepatocytes)” value [1] was 0.00 µL/min/106 hepatocytes, the “Concentration (nM), Time 0 min” value [1] was 904.289 nM and 891.557 nM and 657.581 nM and the “Concentration (nM), Time 15 min” value [1] was 889.716 nM and 801.576 nM and 938.868 nM. The “Concentration (nM), Time 30 min” value [1] was 774.463 nM and 733.048 nM and 756.418 nM, the “Concentration (nM), Time 60 min” value [1] was 901.107 nM and 929.789 nM and 820.604 nM and the “Concentration (nM), Time 120 min” value [1] was 865.693 nM and 807.871 nM and 671.853 nM. For the same molecule, the “Concentration (nM), Time 240 min” value [1] was 674.351 nM and 611.715 nM and 490.915 nM, the “Linear Regression Results, Best-Fit Values, Slope” value [1] was -0.001398 and the “Linear Regression Results, Best-Fit Values, Clearance” value [1] was 2.796. For the same molecule, the “Linear Regression Results, Best-Fit Values, Half Life” value [1] was 495.708, the “clearance rate in hepatocytes” value ([1]; human hepatocyte suspensions, values as rounded or worded in text) was “no clearance” and the Hep_Stab_Fail [2] was 0. For the same molecule, the “HT BkgdCl, Half Life” value [2] was 329.06, the “HT BkgdCl, Slope” value [2] was -0.002106 and the “Negative Controls, Heat Treated (HT), concentration at 0 min” value [2] was 941.377 nM and 735.79 nM and 794.754 nM. For the same molecule, the “Negative Controls, Heat Treated (HT), concentration at 240 min” value [2] was 487.17 nM and 595.696 nM and 416.449 nM, the “No Cells BkgdCl, Half Life” value [2] was 490.099 and the “No Cells BkgdCl, Slope” value [2] was -0.001414. For the same molecule, the “Negative Controls, No cells (NC), concentration at 0 min” value [2] was 830.122 nM and 683.027 nM and 707.501 nM, the “Negative Controls, No cells (NC), concentration at 240 min” value [2] was 479.464 nM and 568.092 nM and 532.117 nM and the Css [3, 6] was 0.44 mg/L and 2.07 uM. It also gave a Clhep [3] of 0.000 L/h, an AED [3] of 0.9667 mg/kg/day and a Fub [3] of 1. It also gave a Css [3, 7] of 2.07 µM, a Css ([3]; human steady-state plasma concentration, assuming 1 mg/kg/day dosage, listed as hexafluoroamylene glycol) of 2.1 to 2.7 µM and a CLint [3] of 0 µL/min. The LOEC (human primary cells; [8]) was 2.00 µM, the LOEC (human primary cells; [9]) was 2 µM and the PPB_Stab_Fail (human plasma [4]) was 0. For the same molecule, the “Mean Stability” value (human plasma [4]) was 0.996, the “Stability (T5hr/ T1hr), replicates A, B, C” value (human plasma [4]) was 1.079 and 0.9916 and 0.917 and the “Fraction Unbound (fu), Run-specific Avg” value (human plasma [5]) was 0.68. The Mean fu (human plasma [5]) was 0.6770, the fup (human plasma [5]; human plasma) was 0.6770 and the fup (human plasma [5]; human plasma, listed as hexafluoroamylene glycol) was 0.68. The “Fraction Unbound (fu), replicates A, B, C” value (human plasma [5]) was 0.6223 and 0.7422 and 0.6663.
